Source: PMC6060383, “Synthesis and pharmacological evaluation of novel isoquinoline N-sulphonylhydrazones designed as ROCK inhibitors” (Journal of Enzyme Inhibition and Medicinal Chemistry, 2018)
Entries after “also recorded” stand apart in the source; their conditions may differ.

Tests used:
[1] = biological target: T1, ROCK1 human recombinant enzyme (Homo sapiens, UniProt Q13464); test: ROCK1 inhibition assay (Eurofins-Cerep, phosphorylation of Ulight-RRRSLLE substrate); format: biochemical
T1 construct: purchased EUROFINS-CEREP France (contract assay, study numbers 100033685 and 100040481); host or cells: Sf9 insect cells
T1 sequence (Q13464 whole entry): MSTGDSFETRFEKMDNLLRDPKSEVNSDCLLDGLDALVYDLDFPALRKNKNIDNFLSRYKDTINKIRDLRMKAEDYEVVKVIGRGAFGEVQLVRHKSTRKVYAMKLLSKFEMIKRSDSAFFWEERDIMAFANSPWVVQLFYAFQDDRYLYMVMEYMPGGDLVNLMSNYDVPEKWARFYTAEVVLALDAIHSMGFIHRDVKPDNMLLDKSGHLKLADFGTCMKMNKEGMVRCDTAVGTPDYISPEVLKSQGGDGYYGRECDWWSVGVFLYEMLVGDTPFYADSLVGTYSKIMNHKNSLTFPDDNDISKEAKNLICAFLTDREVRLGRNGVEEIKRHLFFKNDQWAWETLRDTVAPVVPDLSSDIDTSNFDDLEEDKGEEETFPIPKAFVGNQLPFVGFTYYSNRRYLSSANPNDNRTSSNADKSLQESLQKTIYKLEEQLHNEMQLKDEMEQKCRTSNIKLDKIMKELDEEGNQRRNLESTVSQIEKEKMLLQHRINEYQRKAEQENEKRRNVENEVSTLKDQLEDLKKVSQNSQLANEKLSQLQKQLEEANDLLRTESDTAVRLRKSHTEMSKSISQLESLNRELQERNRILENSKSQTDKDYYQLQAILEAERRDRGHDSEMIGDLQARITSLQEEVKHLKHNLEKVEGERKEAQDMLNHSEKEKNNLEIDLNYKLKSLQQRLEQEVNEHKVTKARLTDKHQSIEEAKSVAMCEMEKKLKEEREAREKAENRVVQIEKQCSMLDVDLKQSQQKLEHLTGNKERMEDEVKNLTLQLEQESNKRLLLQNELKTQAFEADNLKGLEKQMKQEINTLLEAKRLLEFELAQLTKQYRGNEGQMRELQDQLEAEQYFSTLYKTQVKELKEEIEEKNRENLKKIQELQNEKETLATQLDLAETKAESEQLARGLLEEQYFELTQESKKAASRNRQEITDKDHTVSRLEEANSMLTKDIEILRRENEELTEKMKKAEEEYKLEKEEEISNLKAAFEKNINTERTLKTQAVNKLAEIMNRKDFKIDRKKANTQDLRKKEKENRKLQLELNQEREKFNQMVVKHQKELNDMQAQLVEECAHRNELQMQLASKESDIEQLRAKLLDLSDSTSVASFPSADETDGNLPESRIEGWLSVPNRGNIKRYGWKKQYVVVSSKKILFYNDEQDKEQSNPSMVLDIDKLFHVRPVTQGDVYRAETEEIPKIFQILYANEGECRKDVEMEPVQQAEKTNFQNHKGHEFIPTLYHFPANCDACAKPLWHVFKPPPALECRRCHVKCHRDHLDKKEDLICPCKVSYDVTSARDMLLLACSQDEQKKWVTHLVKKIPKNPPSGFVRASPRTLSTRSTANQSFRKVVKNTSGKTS
Procedure: The analysis was performed using software developed at Cerep (Hill software) and GraphPad Prism® 5.0 (GraphPad Software, Inc., San Diego, CA) and validated through comparison with results generated using the SigmaPlot 4.0 software.
Prior to this assay, we evaluated the solubility of these compounds in water (buffer pH 7.4) to ensure that the inhibition percentages were not influenced by the precipitation of the compounds under test conditions.

IKK-β = biological target: T2, IKK-β (Homo sapiens, UniProt O14920); test: IKK-β inhibition screening; format: biochemical; conditions: screening concentration of 10 μM; data not shown
T2 sequence (O14920 1-756): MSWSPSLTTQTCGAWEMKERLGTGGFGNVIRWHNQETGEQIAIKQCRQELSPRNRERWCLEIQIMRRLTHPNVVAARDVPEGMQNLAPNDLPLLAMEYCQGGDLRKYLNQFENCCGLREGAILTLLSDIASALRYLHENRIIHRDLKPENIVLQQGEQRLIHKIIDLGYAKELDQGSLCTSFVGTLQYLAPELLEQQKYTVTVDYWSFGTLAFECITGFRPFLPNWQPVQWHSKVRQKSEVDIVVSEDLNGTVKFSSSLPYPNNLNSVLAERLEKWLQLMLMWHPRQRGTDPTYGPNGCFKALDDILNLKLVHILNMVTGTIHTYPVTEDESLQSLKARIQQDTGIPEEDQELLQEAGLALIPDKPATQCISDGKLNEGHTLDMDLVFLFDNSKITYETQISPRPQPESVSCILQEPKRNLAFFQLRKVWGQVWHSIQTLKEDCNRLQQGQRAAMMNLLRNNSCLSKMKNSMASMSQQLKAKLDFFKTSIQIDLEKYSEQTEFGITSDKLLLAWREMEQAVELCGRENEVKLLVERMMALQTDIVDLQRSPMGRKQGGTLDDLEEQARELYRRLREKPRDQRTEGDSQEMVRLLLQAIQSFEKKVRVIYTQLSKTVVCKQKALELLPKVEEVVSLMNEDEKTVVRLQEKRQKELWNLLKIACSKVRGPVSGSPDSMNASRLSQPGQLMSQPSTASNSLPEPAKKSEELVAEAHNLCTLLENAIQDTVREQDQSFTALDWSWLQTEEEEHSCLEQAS
Description: Furthermore, considering that 2 (LASSBio-1524) was used in the structural design of this new family of ROCK inhibitors we also investigated the ability of 5b (LASSBio-2020) and 11 (LASSBio-2065) to inhibit IKK-β.

MDA-MB 231 cells = test: Cell-based scratch assay (cell migration); parameters: species or system human; conditions: 10 or 30 μM, 24 h
Procedure: The human mammary gland/breast epithelial cell line MDA-MB 231 was obtained from the American Type Culture Collection (ATCC® HTB-26™) and this use was approved by the Ethics Committee for Animal Care and Use in Scientific Research from the Federal University of Rio de Janeiro. Cells were routinely grown in RPMI medium containing 10% foetal bovine serum (FBS), 1% L-glutamine and 1% penicillin-streptomycin, in a humidified 5% CO2 atmosphere at 37 °C. Cells were cultured up to 70–100% confluence and then some cultures were treated with the compounds at different concentrations for 24 or 48 h. All cell culture reagents were purchased from Invitrogen (São Paulo, Brazil).
Cells were cultured in 24-well culture plates for 24 h up to 90–100% confluence. Scratched wound lines were created with the help of a 200 μl micropipette tip. […] Images were acquired with an Olympus DP71 digital camera (Olympus, Japan) and the wound area was quantified using Fiji software (based on ImageJ, http://imageJ.nih.gov/ij/) from three different experiments.
The functions of Rho-kinase include the regulation of cellular contraction, motility, morphology, polarity, division, and gene expression. Therefore, we performed a cell-based scratch assay followed by the quantification of the wounded area to analyse whether compounds 5b (LASSBio-2020) and 11 (LASSBio-2065) altered cell migration. […]

[2] = Chemical stability study (pH 2.0 and pH 7.4 buffers); format: physicochemical; conditions: 37 °C
Procedure: Two microliters ([…]) of a concentrated solution of the compound under examination (40 mM stock solution solubilized in DMSO) and 248 μL of acid (0.2 M potassium chloride and 0.2 M HCl; pH 2.0) or neutral (phosphate dibasic, pH 7.4) buffer were added to a 2 ml Eppendorf microtube. After vortexing, the mixture was placed in a water bath at 37 °C under vigorous stirring for 0, 30, 60, 120, and 240 min. After each reaction, 248 μL of basic buffer (phosphate buffer, pH 8.4) was added to neutralize the pH of the medium in the experiments using acidic buffer. The compound was extracted using 1 ml of acetonitrile followed by vigorous vortexing and freezing of the aqueous phase (−10 °C). The organic phase was separated, filtered, and analysed using an HPLC-PDA (acetonitrile/water […], 0.05% of TFA).
Due to the possible chemical instability of the imine functional group present in the N-sulphonylhydrazone framework, the stability profiles of compounds 5b (LASSBio-2020) and 11 (LASSBio-2065) were determined. The study was conducted under two conditions, pH 2.0 and pH 7.4, to mimic the acidic stomach and the neutral plasma environments, respectively. The compounds were examined in the presence of acid (pH 2) and neutral (pH 7.4) buffers with stirring for 240 min at a controlled temperature (37 °C).

O=S(=O)(N/N=C/c1ccccc1)c1cccc2cnccc12 [Compound 5b, (E)-N′-benzylideneisoquinoline-5-sulphonohydrazide]
IC50 ([1]; human recombinant ROCK1, five-point assay, 1 to 50 µM, mean of two experiments): 13 µM
inhibition at 3 µM ([1]; screening concentration 3 μM, average of two experiments): 29%
IKK-β inhibition (result in words) (IKK-β): none of these N-sulphonylhydrazone derivatives was able to inhibit IKK-β
effect on cell migration (result in words) (MDA-MB 231 cells): inhibited MDA-MB 231 cell migration; also recorded: effective at inhibiting cell migration
recovery percentage under acidic conditions ([2]; pH 2, after 30 min of incubation): 64%
degradation in neutral medium ([2]; pH 7.4, after 4 h): less than 20%
